Test results published in patent US20080045514A1 (Cytovia, Inc., priority 2006, published 2008).
pEC50: −log10 of the molar value.

Columns and labels:
Format in all cases: cell-based
[1] = test system: human B cell lymphoblastoid cell line Ramos; experiment: Caspase cascade activation (EC50), Ramos; settings: Homo sapiens, RAMOS cells, read-out: caspase potency (EC50) RAMOS
Method in brief: (§1)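 48 h compound exposure (0.016–10 μM final) at 37 °C, 5% CO2; then DEVD-R110 substrate in lysolecithin/DTT/PIPES pH 7.2 buffer, 3 h RT. Fluorescence ex485/em530; net RFU = T=3 h minus control T=0; ratio to control; sigmoidal fit → EC50 (nM).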

[2] = test system: human Burkitt's lymphoma cell line Namalwa; experiment: Inhibition of cell proliferation (GI50), Namalwa; settings: Homo sapiens, Burkitts lymphoma cell; Namalwa cells, 48 h, CellTiter-Glo
Method in brief: (§2)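 Growth inhibition is determined as the compound concentration halving proliferation relative to a time-zero (0.5 h) luminescence baseline and drug-free maximum. Cells (4.4×10^4 cells/mL) are treated 48 h at 37 °C over a 1 nM–10 μM final range, and ATP content is measured with CellTiter-Glo.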

[3] = test system: human breast cancer cell line T-47D; experiment: Caspase cascade activation (EC50), T-47D; settings: Homo sapiens; T47D cells; caspase cascade activation; read-out: caspase potency (EC50) T47D
Method in brief: as §1

[4] = test system: human colon carcinoma cell line HCT116; experiment: Inhibition of cell proliferation (GI50), HCT116; settings: Homo sapiens; HCT 116 cells, 48 h, CellTiter-Glo
Method in brief: as §2

[5] = test system: human B cell lymphoblastoid cell line Ramos; experiment: Inhibition of cell proliferation (GI50), Ramos; settings: Homo sapiens; Ramos cells, 48 h, CellTiter-Glo
Method in brief: as §2

[6] = test system: human lymphoma cell line Raji; experiment: Caspase cascade activation (EC50), Raji; settings: Homo sapiens, RAJI cells, read-out: caspase potency (EC50) RAJI
Method in brief: as §1

[7] = test system: human leukemia cell line K562; experiment: Inhibition of cell proliferation (GI50), K562; settings: Homo sapiens; K562 cells, 48 h, CellTiter-Glo
Method in brief: as §2

[8] = test system: human colon carcinoma cell line HCT116; experiment: Caspase cascade activation (EC50), HCT116; settings: Homo sapiens, HCT-116; HCT116 cells; caspase cascade activation; read-out: caspase potency (EC50) HCT116
Method in brief: as §1

[9] = test system: human lung cancer cell line H1299; experiment: Inhibition of cell proliferation (GI50), H1299; settings: NCI-H1299, H1299 cells, 48 h, CellTiter-Glo
Protocol: Human breast cancer cell lines T-47D, human hepatocellular carcinoma cell line SNU398, human colon carcinoma cell line HCT116, human lung cancer cell line H1299, human leukemia cell line K562, human lymphoma cell line Raji, human B cell lymphoblastoid cell line Ramos, and human Burkitt's lymphoma cell line Namalwa were grown and harvested as in Example 100. An aliquot of […] of cells (4.4×10^4 cells/mL) was added to a well of a 96-well microtiter plate containing 5 μL of a 10% DMSO in RPMI-1640 media solution containing 10 nM to 100 μM of 3-(2-chlorophenyl)-6-(3,4-methylenedioxyphenyl)-7H-[1,2,4]triazolo[3,4-b][1,3,4]thiadiazine (1 nM to 10 μM final). An aliquot of 45 μL of cells was added to a well of a 96-well microtiter plate containing 5 μL of a 10% DMSO in RPMI-1640 media solution without compound as the control sample for maximal cell proliferation (LMax). The samples were mixed by agitation and then incubated at 37° C. for 48 h in a 5% CO2-95% humidity incubator. After incubation, the samples were removed from the incubator and 25 μL of CellTiter-Glo™ reagent (Promega) was added. The samples were mixed by agitation and incubated at room temperature for 10-15 min. Plates were then read using a luminescent plate reader (Model SPECTRAfluor Plus, Tecan) to give Ltest values.
The samples were mixed by agitation and then incubated at 37° C. for 0.5 h in a 5% CO2-95% humidity incubator. After incubation, the samples were removed from the incubator and 25 μL of CellTiter-Glo™ reagent (Promega) was added. The samples were mixed by agitation and incubated at […] 10-15 min at room temperature in a 5% CO2-95% humidity incubator. Fluorescence was read as above, (LStart) defining luminescence for initial cell number used as baseline in GI50 determinations.
Calculation: GI50 (dose for 50% inhibition of cell proliferation) is the concentration where [(Ltest−LStart)/(LMax−LStart)]=0.5.

[10] = test system: human lymphoma cell line Raji; experiment: Inhibition of cell proliferation (GI50), Raji; settings: Homo sapiens; Raji cells, 48 h, CellTiter-Glo
Method in brief: as §2

[11] = test system: human breast cancer cell line T-47D; experiment: Inhibition of cell proliferation (GI50), T47D; settings: Homo sapiens; T47D cells, 48 h, CellTiter-Glo
Method in brief: as §2

[12] = test system: human Burkitt's lymphoma cell line Namalwa; experiment: Caspase cascade activation (EC50), Namalwa; settings: Homo sapiens, Burkitts lymphoma cell; Namalwa cells; caspase cascade activation; read-out: caspase potency (EC50) Namalwa
Method in brief: as §1

[13] = test system: human hepatocellular carcinoma cell line SNU398; experiment: Caspase cascade activation (EC50), SNU398; settings: Homo sapiens, SNU-398; SNU398 cells; caspase cascade activation; read-out: caspase potency (EC50) SNU398
Method in brief: as §1

[14] = test system: human cancer cell line H1299; experiment: Caspase cascade activation (EC50), H1299; settings: NCI-H1299, H1299 cells, read-out: caspase potency (EC50) H1299
Method in brief: as §1

[15] = test system: human hepatocellular carcinoma cell line SNU398; experiment: Inhibition of cell proliferation (GI50), SNU398; settings: Homo sapiens; SNU 398 cells, 48 h, CellTiter-Glo
Method in brief: as §2

SMILES	pEC50 [1]	GI50 [2] [nM]	pEC50 [3]	GI50 [4] [nM]	GI50 [5] [nM]	pEC50 [6]	GI50 [7] [nM]	pEC50 [8]	GI50 [9] [nM]	GI50 [10] [nM]	GI50 [11] [nM]	pEC50 [12]	pEC50 [13]	pEC50 [14]	GI50 [15] [nM]
CCOc1ccc(C2=Nn3c(nnc3-c3ccc(Cl)cc3)SC2)cc1 [F, 3-(4-Chlorophenyl)-6-(4-ethoxyphenyl)-7H-[1,2,4]triazolo[3,4-b][1,3,4]thiadiazine]	6.97	120	6.25	419	15	6.81	47	6.85	58	136	151	7.16	7.05	6.56	
Clc1ccccc1-c1nnc2n1N=C(c1ccc3c(c1)OCO3)CS2 [Example P, 3-(2-chlorophenyl)-6-(3,4-methylenedioxyphenyl)-7H-[1,2,4]triazolo[3,4-b][1,3,4]thiadiazine]	6.54	472	6.63	884	118	6.47	214	6.64	202	426	175	6.91	6.72	6.43	
COc1ccccc1-c1nnc2n1N=C(c1ccc(Br)cc1)CS2 [W, 3-(2-Methoxyphenyl)-6-(4-bromophenyl)-7H-[1,2,4]triazolo[3,4-b][1,3,4]thiadiazine]	6.76	314	6.50	489	141	6.49	178	6.61	161	299	135		6.79	6.26	
COc1ccc(C2=Nn3c(nnc3-c3ccccc3OC)SC2)cc1OC [Example K1, 3-(2-Methoxyphenyl)-6-(3,4-dimethoxyphenyl)-7H-[1,2,4]triazolo[3,4-b][1,3,4]thiadiazine]	7.06	38	6.30	253	41	6.86	99	6.87	191	39	461	6.97	7.15	6.43	
COc1ccc(C2=Nn3c(nnc3-c3cc(OC)c(OC)c(OC)c3)SC2)cc1OC [Example L1, 3-(3,4,5-Trimethoxyphenyl)-6-(3,4-dimethoxyphenyl)-7H-[1,2,4]triazolo[3,4-b][1,3,4]thiadiazine]	6.89	243	6.30	200	76	6.74	163	6.75	339	150	200	6.91	6.88	6.24	147
COc1ccc(C2=Nn3c(nnc3-c3ccc(Cl)cc3)SC2)cc1 [D, 3-(4-Chlorophenyl)-6-(4-methoxyphenyl)-7H-[1,2,4]triazolo[3,4-b][1,3,4]thiadiazine]	7.20	1500	6.50	2120	21	7.08	31	6.89	42	1500	144	7.24	7.09	6.85	
COc1ccc(C2=Nn3c(nnc3-c3ccc(OC)c(OC)c3)SC2)cc1OC [Example N1, 3-(3,4-Dimethoxyphenyl)-6-(3,4-dimethoxyphenyl)-7H-[1,2,4]triazolo[3,4-b][1,3,4]thiadiazine]	6.23		5.65			6.24		5.61	1940		2650	6.25	5.88	5.62	

Results, then the molecule that gave them:

pEC50 [1]	GI50 [2] [nM]	pEC50 [3]	GI50 [4] [nM]	GI50 [5] [nM]	pEC50 [6]	GI50 [7] [nM]	pEC50 [8]	GI50 [9] [nM]	GI50 [10] [nM]	GI50 [11] [nM]	pEC50 [12]	pEC50 [13]	pEC50 [14]	GI50 [15] [nM]	SMILES
6.97	13	6.30	81	45	7.00	32	6.64	48	90	130	7.11	7.12	6.56	60	COc1ccc(C2=Nn3c(nnc3-c3ccc(Cl)cc3Cl)SC2)cc1OC [Example G1, 3-(2,4-Dichlorophenyl)-6-(3,4-dimethoxyphenyl)-7H-[1,2,4]triazolo[3,4-b][1,3,4]thiadiazine]
6.34	122	6.55	825	164	6.40	239	6.50	214	2220	124	6.84	6.60	6.38		Cc1ccccc1-c1nnc2n1N=C(c1ccc3c(c1)OCO3)CS2 [Example M, 3-(2-Methylphenyl)-6-(3,4-methylenedioxyphenyl)-7H-[1,2,4]triazolo[3,4-b][1,3,4]thiadiazine]
6.58		6.46			6.66		6.33	314		375	6.58	6.61	5.91		Cc1cccc(-c2nnc3n2N=C(c2ccc4c(c2)OCO4)CS3)c1 [Example T, 3-(3-Methylphenyl)-6-(3,4-methylenedioxyphenyl)-7H-[1,2,4]triazolo[3,4-b][1,3,4]thiadiazine]
6.03	2870	5.88	2340	1390	6.15	453	< 5.00	1010	2890	1370		5.91	5.88		CCOc1cccc(-c2nnc3n2N=C(c2ccc(O)c(O)c2)CS3)c1 [Example C1, 3-(3-Ethoxyphenyl)-6-(3,4-dihydroxyphenyl)-7H-[1,2,4]triazolo[3,4-b][1,3,4]thiadiazine]
6.56		5.62			6.30		6.25	510		2540	6.56	6.44	6.12		COc1ccc(C2=Nn3c(nnc3-c3ccccc3Cl)SC2)cc1OC [N, 3-(2-Chlorophenyl)-6-(3,4-dimethoxyphenyl)-7H-[1,2,4]triazolo[3,4-b][1,3,4]thiadiazine]
